These are literature values, as cited in patent US20100241197A1, “METHODS OF USING NITROXIDES IN CONJUNCTION WITH PHOTOSENSITIZERS AND SONOSENSITIZERS” (Mitos Pharmaceuticals, Inc., priority 2003, published 2010).

For data set [1] the following is noted: relative to PHOTOFRIN
Experiment in data set [2]: not given
This is another data set of the same source.

The test system of the next data set is tumor. To be noted: in vivo.

Read-outs that look alike come from different tables or passages of the source.

For the molecule `CCOC(=O)C1=Cc2c3nc(cc4nc(cc5[n-]c(cc6[n-]c2c(C)c6CC)c(C)c5CC)C(C)=C4CC)[C@@H](C)[C@]13CC.[Cl-].[Cl-].[Sn]` (racemic) [SnET2, tin etiopurpurin], the extinction coefficient (at 700 nm) is listed as 40 000 M-1 cm-1. On to `Oc1cccc(-c2c3nc(c(-c4cccc(O)c4)c4ccc([nH]4)c(-c4cccc(O)c4)c4nc(c(-c5cccc(O)c5)c5ccc2[nH]5)CC4)C=C3)c1` [m-THPC, Meta-tetra hydroxyphenyl chlorin], for which the “skin photosensitivity compared with PHOTOFRIN” value in data set [1] is “only slightly less”. Regarding `C=Cc1c(C)c2cc3nc(c(CC(=O)N[C@@H](CC(=O)[O-])C(=O)[O-])c4[nH]c(cc5nc(cc1[nH]2)C(C)=C5CC)c(C)c4C(=O)[O-])[C@@H](CCC(=O)[O-])[C@@H]3C.[Na+].[Na+].[Na+].[Na+]` [Npe6, Mono-L-aspartyl chlorin e6], under “absorbance peak at 654 nm”, the extinction coefficient was 40 000 M-1 cm-1. Moreover, in data set [2], the “solubility in water / aqueous solutions” value was “highly water soluble”. For “benzoporphyrin derivative mono-acid A [BPD]”, the extinction coefficient (absorbance peak at 650 nm) was 34 000 M-1 cm-1. Besides, the tumor accumulation result in the data set on tumor was “rapid tumor accumulation”.
